From patent publication US8708475B2, “Ultraviolet crosslinking inkjet ink, ink cartridge containing same, and image forming method and apparatus using same” (Ricoh Company, Ltd., priority 2010, dated 2014)
Entries after “also recorded” stand apart in the source; their conditions may differ. Where two headings read alike, the source gives them in different places.

How the values were obtained:
[1] = described in the MSDS; cited from earlier work
mice [2] = details: mouse, in vivo
[3] = maximization method, Contact Dermatitis 8 223-235 (1982); cited from earlier work
[4] = in vivo; cited from earlier work
mice [5] = test: LLNA method skin sensitization test (OECD Test Guideline 429), stimulation index from BrdU content of auricular lymph nodes; details: mouse, in vivo

Row | Molecule | SI value, bound stated for listed methacrylates (mice [2]) | skin sensitization potential [3] | also measured
1 | CSc1ccc(C(=O)C(C)(C)N2CCOCC2)cc1 [2-Methyl-1-[4-(methylthio)phenyl]-2-morphorinopropane-1-one] | – | – | skin sensitization potential [1]: no skin sensitization potential; also recorded: pane-1-one (nega-
2 | C=C(C)C(=O)OCC(C)(C)COC(=O)C(=C)C [Neopentyl glycol dimethacrylate] | – | – | SI value, bound stated for listed methacrylates (mice [2]; female, 3 days): less than 3
3 | C=C(C)C(=O)OC(C)(C)C [t-Butyl methacrylate] | less than 3 | negative skin sensitization potential | –
4 | C=C(C)C(=O)OCCCCC [n-Pentyl methacrylate] | less than 3 | negative skin sensitization potential | –
5 | C=C(C)C(=O)OCC(CC)(COC(=O)C(=C)C)COC(=O)C(=C)C [Trimethylolpropane trimethacrylate] | – | – | skin irritation potential (in words) [4]: low skin irritation potential; skin sensitization potential (in words) (mice [5]): low skin sensitization potential
6 | C=CC(=O)OCC(CC)(COC(=O)C=C)COC(=O)C=C [Trimethylolpropane triacrylate] | – | – | skin irritation potential (in words) [4]: high skin irritation potential
7 | Polyethylene glycol (400) dimethacrylate | less than 3 | – | –
8 | Polyethylene glycol (600) dimethacrylate | less than 3 | – | –
9 | C=C(C)C(=O)OCCCCCC [n-Hexyl methacrylate] | less than 3 | negative skin sensitization potential | –
